The values below come from US20180079906A1, “AZACYANINE DYES AND USE THEREOF” (Ecole Polytechnique Fédérale de Lausanne (EPFL), priority 2016, published 2018).

The test system of series [1] is skin tissue of a nude mouse. Briefly: Ex vivo cell death assay by cryogenic tissue damage (imaging necrosis). As to conditions: for fluorescence at the site of focal dry-ice treatment: cryogenic tissue damage, 1, 5, 10 uM dye, 10 min at room temperature. From the text: Ex vivo cell death assay for compounds, VI and XIV were studied using a method of cryogenic tissue damage. […] After gentle washing with PBS, the samples were scanned for fluorescence using an IVIS Spectrum imaging system (FIG. 18-19).

Another series concerns mastocytoma tumor. Kind of series: Fluorescence image-guided surgery of mastocytoma tumor in dogs. The class given is in vivo, dog. As for the experimental part: A kuvasz dog (male, 30 kg) diagnosed with mastocvtoma tumor on his right leg was used for image guided surgery study. All canine studies were performed at Veterinair Verwijscentrum Gouda, Netherlands. Canine was injected intravenous catheterization into the cephalic vein with fluorescence probe XXI (180 nmol/kg) 6h prior to surgery. Canine underwent to general anesthesia prior to surgery. Image guided cancer surgery was performed using Solaris Open-air Fluorescence Imaging System (Perkin Elmer), equipped with four fluorescent channels (470 nm, 660 nm, 750 nm and 800 nm) to obtain real-time visualization of tumor imaging in ambient light (FIGS. 13-15).
A labrador dog (male, 33 kg) diagnosed with mastocytoma tumor on his nose was used for image guided surgery study. All canine studies were performed at Veterinair Verwijscentrum Gouda, Netherlands. Canine was injected intravenous catheterization into the cephalic vein with fluorescence probe XXI (92 nmol/kg) 10 h prior to surgery. Canine underwent to general anesthesia prior to surgery. Image guided cancer surgery was performed using Solaris Open-air Fluorescence Imaging System (Perkin Elmer), equipped with four fluorescent channels (470 nm, 660 nm, 750 nm and 800 nm) to obtain real-time visualization of tumor imaging in ambient light (FIGS. 16-17).

The next series deals with 4T1-luc2 tumors. Briefly: In vivo NIR fluorescence imaging of subcutaneous 4T1 tumors in nude mice. As for the experimental part: Female nude mice 6-8 weeks of age were injected with […] of 4T1 cells in 100 ul of PBS subcutaneously into the right flank. Once the tumors reached approximately 0.5 cm^3 in size, animals were injected with 20 nmol of the imaging probe XXI intravenously in 100 ul of PBS. Mice were then imaged at different time points using IVIS Spectrum instrument (Perkin Elmer) at recommended settings 745/810 nm excitation/emission (FIGS. 11-12).

For series [2] the following is noted: in methanol, calibration standard; cited from earlier work.
The conditions of series [3]: cited from earlier work.
Where [4] appears, read: 30 kg dog, 180 nmol/kg I.V., 6h after injection.

Each structure is given as a SMILES string.

As for `CC1(C)C2=CC=CN(CCCCCC(=O)O)C2=N/C1=C/C=C1\C[N+](C)(C)CC(/C=C/C2=Nc3c(ccc[n+]3CCCCCC(=O)O)C2(C)C)=C1Cl` [Dye VI], in series [1] (cryogenic tissue damage), the “fluorescence signal from viable cells” value is given as “no signal”. Also, the “fluorescence at the site of focal dry-ice treatment” value in series [1] is “strong fluorescence signal”.
Regarding `CC1(C)C2=CC=CN(CCCCCC(=O)O)C2=N/C1=C/C=C1\C[N+](C)(C)CC(/C=C/C2=Nc3c(ccc[n+]3CCCCCC(=O)O)C2(C)C)=C1Oc1ccc(S(=O)(=O)O)cc1.[Na+]` [Dye XIV], the “fluorescence at the site of focal dry-ice treatment” value in series [1] is given as “strong accumulation of fluorescence”.
As for `CC1(C)C2=CC=CN(CCCCCC(=O)NCCCC[C@@H]3NC(=O)[C@@H](Cc4ccccc4)NC(=O)[C@H](CC(=O)O)NC(=O)CNC(=O)[C@H](CCCNC(=N)N)NC3=O)C2=N/C1=C/C=C1\C[N+](C)(C)CC(/C=C/C2=Nc3c(ccc[n+]3CCCCCC(=O)NCCCC[C@H]3NC(=O)[C@H](Cc4ccccc4)NC(=O)[C@@H](CC(=O)O)NC(=O)CNC(=O)[C@@H](CCCNC(=N)N)NC3=O)C2(C)C)=C1Oc1ccc(S(=O)(=O)O)cc1.[Na+]` [Dye XXI], in the series on mastocytoma tumor (setting [4]), the “background uptake in normal tissue” value was “negligible” and the “identification of tumor by fluorescence in vivo” value was “clearly identified”. Moreover, the “time post injection of highest accumulation in the tumor tissue” value in the series on mastocytoma tumor (dogs) is no more than 6 h. Further, in the series with 4T1-luc2 tumors (4T1 tumour bearing mice), the “time post injection of optimal background/noise ratio calculated from the region of interest” value is on record as 2 h. Also, the “tumor uptake (kinetics and specificity)” value with 4T1-luc2 tumors (subcutaneous tumors in mice) was “faster and more specific tumor uptake”. Besides, the “time post injection at which optimal background to noise ratio is achieved” value in the series on 4T1-luc2 tumors (subcutaneous tumors in mice, intravenous injection) is 2 h.
Consider `CC1(C)C(/C=C/C=C/C=C/C=C2\N(CCCCS(=O)(=O)O)c3ccc4ccccc4c3C2(C)C)=[N+](CCCCS(=O)(=O)[O-])c2ccc3ccccc3c21` [ICG, Indocyanine Green], for which, in series [2], the “fluorescence quantum yield (QY)” value is 7.8%. The solubility in saline result in series [3] was “not readily soluble”.
